In patent US20180078576A1, “SULPHATED XYLANS FOR TREATMENT OR PROPHYLAXIS OF RESPIRATORY DISEASES” (Paradigm Biopharmaceuticals Limited, priority 2007, published 2018):
Marks after values point to notes of the source that are not given here.

Experiments:
[1] = system: Guinea-pigs sensitized to ovalbumin; assay: Guinea pig model of asthma, airway hyper-reactivity 24 h after OVA challenge; type: in vivo; settings: Dexamethasone 15 mg/kg, glycan compounds 10 mg/kg, intratracheal microspray
Protocol: A guinea pig model of asthma was used. Guinea-pigs (8 per group) were sensitized to ovalbumin by two intraperitoneal injections of ovalbumin (grade V, 20 μg) in aluminium hydroxide gel on Days 1 and 11. On day 20 (24 hours prior to assessing airway hyper-reactivity (AHR)) each animal received a challenge dose of OVA—this took the form of a 1 hour aerosol exposure of OVA (10 μg). The negative control animals received, no sensitization and no challenge. The positive controls were sensitized and challenged but were either given no further treatment or were treated with vehicle (saline). Test compounds (PPS and the sulfated xylan pentasaccharide) and vehicle were administered by intratracheal administration as an aqueous microspray using a Penn Century device. The device used was the FMJ250 high pressure syringe and a 1A-1C microspray delivery tube. The particle size delivery goes up to 32 μm. During the study the volume delivered was 100 ul for all test formulations. The test compounds were administered 30 min before challenge with OVA. The animals underwent surgery 24 hours after challenge to insert a cannula into the trachea, the cannula was connected to the instrumentation which measured pressure and changes in airflow. After surgery the animals were allowed to stabilize for 10 min before baseline readings were taken. Bronchoconstriction was evoked with aerosolized methacholine (10 mg/ml and 30 mg/ml) for 20 seconds. The difference between baseline readings and that obtained after methacholine were used to calculate Cdyn and RL. Thus, measurements of lung function were taken approximately 25 hours after the drug was administered. Both pentosan polysulfate and the sulfated xylan pentasaccharide when administered at 10 mg/kg were effective in reducing the airway hyper-reactivity readings. Their efficacy was approximately equivalent to that usually seen with 7.5 mg/kg of dexamethasone in this model.

[2] = biological target: T1, recombinant human IL-5 (rhIL-5) (Homo sapiens, UniProt P05113); assay: BIAcore inhibition of IL-5 binding to immobilized heparin; settings: BIAcore chip, titration, FIG. 3B
T1 construct: made in house; host or cells: baculovirus expression system
T1 sequence (P05113 20-134): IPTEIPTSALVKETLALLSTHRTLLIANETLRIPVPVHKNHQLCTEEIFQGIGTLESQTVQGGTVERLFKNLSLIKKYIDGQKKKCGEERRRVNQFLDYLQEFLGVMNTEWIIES
Excerpt: (§1) The optical phenomenon of surface plasmon resonance is used to monitor physical interactions between molecules. Passing a solution of a potential protein ligand (e.g. IL-4, IL-5 or eotaxin) over a sensor surface to which a target (e.g. heparin) is coupled monitors the real-time binding of protein ligands to the immobilized target. Detection is achieved by measuring refractive index changes very close to the sensor surface. When the refractive index is altered, the angle at which plasmon resonance occurs changes and this change directly correlates with the amount of protein interacting with the surface. A BIAcore 2000 is conveniently used. […]
(§2) Biotinylated heparin is immobilized on the biosensor chip. […] Solutions containing potential protein ligands of interest are injected over the sensor chip surface, and the binding is measured in real time (Fernig, In: Proteoglycan protocols, Ed. R. V. Iozzo, Humana Press, Totowa, N.J., USA, 2001). Baculovirus expressed recombinant human IL-4 (rhIL-4) and baculovirus expressed recombinant human IL-5 (rhIL-5) readily bind to heparin immobilized by this method (see PCT/AU2005/000551). […] Similarly, recombinant human eotaxin (CCL11) expressed in E. coli binds readily to immobilized heparin and binding is specific as there is little eotaxin binding to sensor chips lacking heparin. […]

[3] = biological target: T2, recombinant human eotaxin (CCL11) (Homo sapiens, UniProt P51671); assay: BIAcore inhibition of eotaxin-1 binding to immobilized heparin; settings: BIAcore chip, FIG. 3D
T2 construct: host or cells: E. coli
T2 sequence (P51671 24-97): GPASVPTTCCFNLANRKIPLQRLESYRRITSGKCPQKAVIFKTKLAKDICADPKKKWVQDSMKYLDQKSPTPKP
Excerpt: as §1, §2

Human leukocyte elastase = biological target: T3, Human leukocyte elastase (Homo sapiens, UniProt P08246); assay: Elastase assay with fluorogenic substrate; type: biochemical; settings: fluorogenic substrate MeOSuc-Ala-Ala-Pro-Val-amido-methylcoumarin, pH 7.4, 37° C., 60 minutes; read-out: IC50, inhibition of human leukocyte elastase activity
T3 sequence (P08246 30-267): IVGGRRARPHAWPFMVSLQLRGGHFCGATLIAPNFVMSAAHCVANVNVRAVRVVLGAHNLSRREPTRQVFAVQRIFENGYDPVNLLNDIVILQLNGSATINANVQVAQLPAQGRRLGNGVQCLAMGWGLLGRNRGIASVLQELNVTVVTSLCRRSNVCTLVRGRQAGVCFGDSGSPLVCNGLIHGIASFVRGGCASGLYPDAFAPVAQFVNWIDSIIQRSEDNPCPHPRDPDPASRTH
Protocol: Elastase is a protein that is a potential target for the treatment of COPD. Elastase assays were performed in 96-well plastic microplates for easy quantification by the fluorescent plate reader. Human leukocyte elastase (5 nM/well) was incubated in the presence of absence of pentosan polysulfate, or other sulfated polysaccharides, with the fluorogenic substrate MeOSuc-Ala-Ala-Pro-Val-amido-methylcoumarin (20 μM/well) in a sodium phosphate buffer, pH 7.4. The mixture was incubated at 37° C. for 60 minutes before the reaction was stopped by the addition of 10 μl/well of […] acetic acid and the mixture transferred to a 96-well microplate with fluorescence being measured using an excitation wavelength of 355 nm and an emission wavelength of 460 nm. Various concentrations of inhibitors were used to allow the calculation of the concentration of polysaccharide required to inhibit enzyme activity by 50% (IC50).

| Compound | Cdyn, % increase from that of the positive control ([1]; MCh 10 mg/ml) [% **] | RL, % decrease from that of the positive control ([1]; MCh 10 mg/ml) [% **] | Cdyn, % increase from that of the positive control ([1]; MCh 30 mg/ml) [% **^] | RL, % decrease from that of the positive control ([1]; MCh 30 mg/ml) [% **] | IC50 [2] [nM] | IC50 [3] [nM] | IC50 (Human leukocyte elastase) [nM] |
| --- | --- | --- | --- | --- | --- | --- | --- |
| C[C@@H]1C[C@H]2[C@@H]3CCC4=CC(=O)C=C[C@]4(C)[C@@]3(F)[C@@H](O)C[C@]2(C)[C@@]1(O)C(=O)CO [Dexamethasone] | 76.5 | 93.9 | 84.8 | 86 | – | – | – |
| heparin | – | – | – | – | 30 to 100 | ~160 | ~200 |
